EC50 data for 53 molecules are collected here from patent EP4001279A1, “NOVEL SPIROPYRROLIDINE DERIVED ANTIVIRAL AGENTS” (Enanta Pharmaceuticals, Inc., priority 2020, dated 2022).

This assay concerns 229E human corona virus (hCoV). The assay is described as follows: 229E live virus assay (CPE, ATPlite readout in MRC-5 cells). Format: cell-based, hCoV-229E. The note with it: Human coronavirus 229E, MRC5, hCoV-229E live virus, MOI 0.05, ATPlite readout, run in duplicate. (In general: Cellular ATP, detected with luciferase, serves as a proxy for viable cell number.)
Turning to `COc1cccc2[nH]c(C(=O)N(C)[C@@H](CC(C)(C)C)C(=O)N3C[C@]4(C[C@H]3C#N)C(=O)Nc3ccccc34)cc12` [Example 85], the concentration for a half-maximal effect (EC50) was under 100 nM. To `CN(C(=O)c1cc2c(F)cc(F)cc2[nH]1)[C@@H](CC(C)(C)F)C(=O)N1C[C@]2(C[C@H]1C#N)C(=O)Nc1ccc(Cl)cc12` [Example 455] belongs under 100 nM; to `CC(C)C[C@@H](C(=O)N1C[C@]2(C[C@H]1C#N)C(=O)Nc1ccccc12)N(C)C(=O)c1cc(Cl)c2nn(C3CC3)cc2c1` [Example 316], under 100 nM; to `COc1cccc2[nH]c(C(=O)N[C@@H](CC(C)C)C(=O)N3C[C@]4(C[C@H]3C=O)C(=O)N(C)c3ccccc34)cc12` [Example 119], 100 to 1000 nM.

The molecule `CC(C)C[C@@H](C(=O)N1C[C@]2(C[C@H]1C#N)C(=O)Nc1ccccc12)N(C)C(=O)c1cc(OC2CC2)c2ncccc2c1` [Example 312] returned an EC50 of 100 to 1000 nM. In the case of `CC(C)C[C@@H](C(=O)N1C[C@]2(C[C@H]1C#N)C(=O)Nc1ccccc12)N(C)C(=O)c1cc(OC(F)(F)F)c2ncccc2c1` [Example 322] it was under 100 nM; in that of `CC(C)(C)C[C@H](NC(=O)c1cc2c(F)cc(F)cc2[nH]1)C(=O)N1C[C@]2(C[C@H]1C#N)C(=O)Nc1ccc(Cl)cc12` [Example 448], under 100 nM; in that of `CC(C)(C)C[C@H](NC(=O)Nc1ccc(F)cc1F)C(=O)N1C[C@]2(C[C@H]1C#N)C(=O)Nc1ccccc12` [Example 436], under 100 nM. In the case of `CN(C(=O)C(F)(F)c1cccnc1)[C@@H](CC(C)(C)F)C(=O)N1C[C@]2(C[C@H]1C#N)C(=O)Nc1ccc(Cl)cc12` [Example 482] it was under 100 nM. To `CC(C)C[C@@H](C(=O)N1C[C@]2(C[C@H]1C#N)C(=O)Nc1ccccc12)N(C)C(=O)c1cc(-c2ccccc2)ccc1Cl` [Example 262] belongs 100 to 1000 nM; to `CC(C)C[C@@H](C(=O)N1C[C@]2(C[C@H]1C#N)C(=O)Nc1ccccc12)N(C)C(=O)c1c(Cl)cc(F)cc1Cl` [Example 186], under 100 nM. Consider `CC(C)C[C@@H](C(=O)N1C[C@]2(C[C@H]1C#N)C(=O)Nc1ccccc12)N(C)C(=O)c1cnc2ccccc2c1` [Example 213], for which the half-maximal effective concentration (EC50) is under 100 nM.

In the case of `[2H]C([2H])([2H])N(C(=O)c1ccc2ncc(C(F)(F)F)cc2c1)[C@@H](CC(C)(C)C)C(=O)N1C[C@]2(C[C@H]1C#N)C(=O)Nc1ccccc12` [Example 381], the 50% effective concentration (EC50) was under 100 nM. In the case of `CC(C)C[C@@H](C(=O)N1C[C@]2(C[C@H]1C#N)C(=O)Nc1ccccc12)N(C)C(=O)c1cccc(-c2cccc(C#N)c2)c1` [Example 279] it was under 100 nM.

The molecule `C#CCOC[C@H](NC(=O)c1cc2c(OC)cccc2[nH]1)C(=O)N1C[C@]2(C[C@H]1C#N)C(=O)Nc1ccccc12` [Example 127] came in with a 50% effective concentration (EC50) of under 100 nM. In the case of `CC(C)C[C@@H](C(=O)N1C[C@]2(C[C@H]1C#N)C(=O)Nc1ccccc12)N(C)C(=O)[C@@H](c1cnn(C)c1)C(C)C` [Example 348] it was 100 to 1000 nM; in that of `COc1ccc(Cl)c(C(=O)N(C)[C@@H](CC(C)C)C(=O)N2C[C@]3(C[C@H]2C#N)C(=O)Nc2ccccc23)c1` [Example 58], 100 to 1000 nM; in that of `COc1cccc2[nH]c(C(=O)N[C@@H](CC(C)(C)C)C(=O)N3C[C@]4(C[C@H]3C#N)C(=O)Nc3ccccc34)cc12` [Example 15], under 100 nM. In the case of `CC(C)C[C@@H](C(=O)N1C[C@]2(C[C@H]1C#N)C(=O)Nc1ccccc12)N(C)C(=O)c1ccc(F)c(Cl)c1` [Example 63] it was over 1000 nM. To `[2H]C([2H])([2H])N(C(=O)c1cc2c(F)cc(F)cc2[nH]1)[C@@H](CC(C)(C)F)C(=O)N1C[C@]2(C[C@H]1C#N)C(=O)Nc1ccc(Cl)cc12` [Example 454, N-((S)-1-((3R,5'S)-5-chloro-5'-cyano-2-oxospiro[indoline-3,3'-pyrrolidin]-1'-yl)-4-fluoro-4-methyl-1-oxopentan-2-yl)-4,6-difluoro-N-(methyl-d3)-1H-indole-2-carboxamide] belongs under 100 nM.

Take `CC(C)C[C@@H](C(=O)N1C[C@]2(C[C@H]1C#N)C(=O)Nc1ccccc12)N(C)C(=O)c1cnn(C(C)(C)C)c1` [Example 352]: the EC50 was under 100 nM. To `CN(C(=O)Cc1ccccn1)[C@@H](CC(C)(C)F)C(=O)N1C[C@]2(C[C@H]1C#N)C(=O)Nc1ccc(Cl)cc12` [Example 483] belongs 100 to 1000 nM; to `CC(C)C[C@@H](C(=O)N1C[C@]2(C[C@H]1C#N)C(=O)Nc1ccccc12)N(C)C(=O)c1cccc(-c2ccc(C(F)(F)F)cc2)c1` [Example 263], under 100 nM. In the case of `CC(=O)C[C@@H](C(=O)N1C[C@]2(C[C@H]1C#N)C(=O)Nc1ccccc12)N(C)C(=O)c1cc2c(F)cc(F)cc2[nH]1` [Example 442] it was under 100 nM. In turn, `CC(C)(F)C[C@H](NC(=O)c1cccc(OC(F)(F)F)c1)C(=O)N1C[C@]2(C[C@H]1C#N)C(=O)Nc1ccc(Cl)cc12` [Example 447] showed an EC50 of 100 to 1000 nM.

As for `CC(C)C[C@H](NC(=O)NCc1ccccc1)C(=O)N1C[C@]2(C[C@H]1C#N)C(=O)Nc1ccccc12` [Example 122], the EC50 lay within 100 to 1000 nM. To `COc1ccc(C(=O)N(C)[C@@H](CC(C)C)C(=O)N2C[C@]3(C[C@H]2C#N)C(=O)Nc2ccccc23)nc1` [Example 193] belongs under 100 nM.

Regarding `Cc1cccc(C)c1NC(=O)N[C@@H](CC(C)(C)C)C(=O)N1C[C@]2(C[C@H]1C#N)C(=O)Nc1ccccc12` [Example 438], the EC50 was under 100 nM. In the case of `[2H]C([2H])([2H])N(C(=O)c1cn(C2CCC2)nn1)[C@@H](CC(C)(C)C)C(=O)N1C[C@]2(C[C@H]1C#N)C(=O)Nc1ccccc12` [Example 379] it was under 100 nM; in that of `CC(C)C[C@@H](C(=O)N1C[C@]2(C[C@H]1C#N)C(=O)Nc1ccccc12)N(C)C(=O)c1nc2c(F)cc(F)cc2[nH]1` [Example 269], under 100 nM. In the case of `N#C[C@@H]1C[C@@]2(CN1C(=O)[C@H](Cc1ccc(F)cc1)NC(=O)c1cc3c(F)cc(F)cc3[nH]1)C(=O)Nc1ccc(Cl)cc12` [Example 452] it was 100 to 1000 nM. To `[2H]C([2H])([2H])N(C(=O)c1cn(CC(F)(F)F)nn1)[C@@H](CC(C)(C)C)C(=O)N1C[C@]2(C[C@H]1C#N)C(=O)Nc1ccccc12` [Example 380] belongs under 100 nM; to `CC(C)(C)C[C@H](NC(=O)NC1CCCCC1)C(=O)N1C[C@]2(C[C@H]1C#N)C(=O)Nc1ccccc12` [Example 440], under 100 nM.

For `CC(C)C[C@@H](C(=O)N1C[C@]2(C[C@H]1C#N)C(=O)Nc1ccccc12)N(C)C(=O)c1cc(OC2CC2)c2nc(C3CC3)sc2c1` [Example 317], the EC50 fell in the range of 100 to 1000 nM. In the case of `CC(C)C[C@@H](C(=O)N1C[C@]2(C[C@H]1C#N)C(=O)Nc1ccccc12)N(C)C(=O)c1nc2c(F)c(F)c(F)cc2[nH]1` [Example 273] it was under 100 nM; in that of `CN(C(=O)Cc1cccnc1)[C@@H](CC(C)(C)F)C(=O)N1C[C@]2(C[C@H]1C#N)C(=O)Nc1ccc(Cl)cc12` [Example 476], 100 to 1000 nM.

In turn, `COc1cccc2[nH]c(C(=O)N[C@@H](CC(C)C)C(=O)N3C[C@]4(C[C@H]3C(=O)O)C(=O)Nc3ccccc34)cc12` [Example 37] yielded an EC50 of 100 to 1000 nM. In the case of `CC(C)(C)C[C@H](NC(=O)c1ccc2ncc(C3CC3)cc2c1)C(=O)N1C[C@]2(C[C@H]1C#N)C(=O)Nc1ccccc12` [Example 136] it was under 100 nM; in that of `CC(C)C[C@@H](O)C(=O)N(C)[C@@H](CC1CC1)C(=O)N1C[C@]2(C[C@H]1C#N)C(=O)Nc1ccccc12` [Example 424], under 100 nM; in that of `CC(C)C[C@@H](C(=O)N1C[C@]2(C[C@H]1C#N)C(=O)Nc1ccccc12)N(C)C(=O)c1cn(C)cn1` [Example 201], under 100 nM. To `CC(C)C[C@@H](C(=O)N1C[C@]2(C[C@H]1C#N)C(=O)Nc1ccccc12)N(C)C(=O)c1ccc2ccncc2c1` [Example 217] belongs under 100 nM. In the case of `CC(C)C[C@@H](C(=O)N1C[C@]2(C[C@H]1C#N)C(=O)Nc1ccccc12)N(C)C(=O)c1ccc(Cl)c(F)c1F` [Example 175] it was under 100 nM.

With `CC(C)C[C@@H](C(=O)N1C[C@]2(C[C@H]1C#N)C(=O)Nc1ccccc12)N(C)C(=O)c1cccc(-c2cccc(Cl)c2)c1` [Example 266], the EC50 is under 100 nM. Molecule `COc1cccc2[nH]c(C(=O)N[C@@H](CC(C)C)C(=O)N3C[C@]4(C[C@H]3C(=O)C(=O)NCc3ccccc3)C(=O)Nc3ccccc34)cc12` [Example 32] came in with an EC50 of 100 to 1000 nM. In the case of `CC(C)C[C@@H](C(=O)N1C[C@]2(C[C@H]1C(=O)CCl)C(=O)Nc1ccccc12)N(C)C(=O)c1cc2c(F)cc(F)c(F)c2[nH]1` [Example 159] it was over 1000 nM; in that of `CC(C)C[C@@H](C(=O)N1C[C@]2(C[C@H]1C(=O)C(=O)NC1CCCCC1)C(=O)Nc1ccccc12)N(C)C(=O)c1cc2c(F)cc(F)cc2[nH]1` [Example 155], over 1000 nM. In the case of `CC(C)C[C@@H](C(=O)N1C[C@]2(C[C@H]1C(O)S(=O)(=O)O)C(=O)Nc1ccccc12)N(C)C(=O)c1cc2c(F)cc(F)c(F)c2[nH]1` (some centres unmarked) [Example 154] it was under 100 nM; in that of `CC(C)C[C@@H](C(=O)N1C[C@]2(C[C@H]1C#N)C(=O)Nc1ccccc12)N(C)C(=O)c1cc(F)ccc1Cl` [Example 62], over 1000 nM; in that of `COc1cccc2[nH]c(C(=O)N[C@H](CC(C)C)C(=O)N3C[C@]4(C[C@H]3C#N)C(=O)Nc3ccccc34)cc12` [Example 12], 100 to 1000 nM.

The molecule `[2H]C([2H])([2H])N(C(=O)[C@H](O)c1ccccc1)[C@@H](CC(C)(C)C)C(=O)N1C[C@]2(C[C@H]1C#N)C(=O)Nc1ccccc12` [Example 428] came in with an EC50 of under 100 nM. In turn, `CC(C)C[C@@H](C(=O)N1C[C@]2(C[C@H]1C#N)C(=O)Nc1ccccc12)N(C)C(=O)c1cc(Cl)c(F)cc1F` [Example 171] yielded an EC50 of under 100 nM. In the case of `CC(C)C[C@@H](C(=O)N1C[C@]2(C[C@H]1C#N)C(=O)Nc1ccccc12)N(C)C(=O)c1cc2cccnc2cc1F` [Example 275] it was under 100 nM; in that of `CC(C)C[C@@H](C(=O)N1C[C@]2(C[C@H]1C#N)C(=O)Nc1ccccc12)N(C)C(=O)c1ccc2cn[nH]c2c1` [Example 223], under 100 nM.

As usually defined, the EC50 is the concentration giving half of the maximal effect. A higher EC50 goes with weaker potency.
